Test results from patent publication US10829484B2, “Compounds and methods for kinase modulation, and indications therefor” (Plexxikon Inc., priority 2015, dated 2020).
Numbering of substitutions follows the chain as printed.

What was measured:
BaF3-FLT3-ITD-F691L = biological target: T1, BaF3-FLT3-ITD-F691L (Homo sapiens, UniProt P36888, INS600HVDFREYEYD/F691L, cells depend on it); test: CTB viability assay CS0047, BaF3-FLT3-ITD-F691L; format: cell-based, murine; conditions: BaF3-FLT3-ITD-F691L cells, CellTiter Blue viability, 72 hours; read-out: Cell Assay: CS0047:BaF3-FLT3-ITD-F691L CTB:IC50
T1 sequence (P36888 with tags, fused parts or gaps INS600HVDFREYEYD/F691L): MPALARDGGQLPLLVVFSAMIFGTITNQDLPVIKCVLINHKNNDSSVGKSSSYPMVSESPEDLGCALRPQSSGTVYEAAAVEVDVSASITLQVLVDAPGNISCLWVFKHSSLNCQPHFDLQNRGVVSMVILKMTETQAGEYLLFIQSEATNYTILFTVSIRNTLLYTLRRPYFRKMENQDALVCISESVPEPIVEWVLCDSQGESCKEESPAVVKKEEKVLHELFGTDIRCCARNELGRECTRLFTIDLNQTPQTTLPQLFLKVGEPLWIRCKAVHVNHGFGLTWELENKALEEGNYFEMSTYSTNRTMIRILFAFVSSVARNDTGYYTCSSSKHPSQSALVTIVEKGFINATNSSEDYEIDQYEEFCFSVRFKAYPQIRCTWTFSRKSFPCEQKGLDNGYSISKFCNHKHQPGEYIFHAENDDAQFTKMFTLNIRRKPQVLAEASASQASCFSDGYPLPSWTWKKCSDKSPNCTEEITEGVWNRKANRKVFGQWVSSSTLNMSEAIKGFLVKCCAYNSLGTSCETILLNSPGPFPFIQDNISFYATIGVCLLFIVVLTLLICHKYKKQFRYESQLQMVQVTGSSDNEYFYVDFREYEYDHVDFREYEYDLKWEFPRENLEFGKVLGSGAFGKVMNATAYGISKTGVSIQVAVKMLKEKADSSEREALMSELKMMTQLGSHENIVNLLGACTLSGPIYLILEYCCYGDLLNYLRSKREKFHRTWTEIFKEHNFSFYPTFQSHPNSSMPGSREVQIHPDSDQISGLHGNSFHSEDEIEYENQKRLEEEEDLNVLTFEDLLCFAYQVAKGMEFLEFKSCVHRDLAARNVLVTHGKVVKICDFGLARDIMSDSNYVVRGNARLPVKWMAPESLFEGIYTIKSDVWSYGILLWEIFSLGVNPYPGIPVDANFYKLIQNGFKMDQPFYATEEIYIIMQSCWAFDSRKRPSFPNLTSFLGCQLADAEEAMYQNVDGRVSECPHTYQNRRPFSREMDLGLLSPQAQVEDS
Source text: (§1) Gene constructs containing the human FLT3 sequences FLT3-ITD, FLT3-ITD-F691L, FLT3-ITD-D835V and FLT3-D835V were synthesized by reverse translation of the human protein sequences, with codons optimized for mammalian expression. Sequence of the internal tandem duplication (ITD) was based on the MV4-11 ITD sequence. Synthetic DNA constructs were cloned into the pMSCV puro retroviral vector (Clontech) and transfected into the EcoPack2-293 packaging cell line (Clontech) to generate retroviruses that contain the different FLT3 constructs. Viruses were transduced into the IL-3-dependent, murine […] cell line, Ba/F3, and selected for puromycin resistance and IL-3 independence. All cell lines were cloned by limiting dilution and clones were used for all subsequent cell assays. Overexpression of the FLT3 mutants in the Ba/F3 cells results in constitutive phosphorylation of the exogenous FLT3 protein, which is required for IL-3 independence.
(§2) Cell lines were serum starved overnight in media containing 0.5% FBS, plated at 15,000 cells/well in 96-well white-walled tissue culture plates, and 3-fold serial dilutions of test compounds of Formula I were added for 72 hours at 37° C. CellTiter Blue (CTB, Promega) was added and incubated for an additional 3 hours at 37° C. Fluorescence was read at 560 nm excitation, 590 nm emission. Wells with CTB+media only were used for background subtraction, and the fluorescence of compound-treated cells was normalized to the fluorescence of DMSO-treated cells. IC50s were determined using Igor Pro software. All compounds are assayed in duplicate cell plates.

BaF3-FLT3-ITD-D835V = biological target: T2, BaF3-FLT3-ITD-D835V (Homo sapiens, UniProt P36888, INS600HVDFREYEYD/D835V, cells depend on it); test: CTB viability assay CS0048, BaF3-FLT3-ITD-D835V; format: cell-based, murine; conditions: BaF3-FLT3-ITD-D835V cells, CellTiter Blue viability, 72 hours; read-out: Cell Assay: CS0048: BaF3-FLT3-ITD-D835V CTB:IC50
T2 sequence (P36888 with tags, fused parts or gaps INS600HVDFREYEYD/D835V): T1 sequence (P36888 with tags, fused parts or gaps INS600HVDFREYEYD/F691L) with L701F, D845V
Source text: as §1, §2

| SMILES | GI50 (BaF3-FLT3-ITD-F691L) [nM] | GI50 (BaF3-FLT3-ITD-D835V) [nM] |
| --- | --- | --- |
| CCc1nn(C2CCS(=O)(=O)C2)cc1Nc1ncc(-c2ccc(CC(=O)Nc3cc(C4(C(F)(F)F)CC4)on3)c(F)c2)cn1 (centres unmarked) [P-012, 2-[4-[2-[[1-(1,1-dioxothiolan-3-yl)-3-ethylpyrazol-4-yl]amino]pyrimidin-5-yl]-2-fluorophenyl]-N-[5-[1-(trifluoromethyl)cyclopropyl]isoxazol-3-yl]acetamide] | 10 to 50 | 10 to 50 |
| Cn1cc(Nc2ncc(-c3ccc(CC(=O)Nc4cc(C5(C(F)(F)F)CC5)on4)c(F)c3)c(C(F)(F)F)n2)cn1 [P-027, 2-[2-fluoro-4-[2-[(1-methylpyrazol-4-yl)amino]-4-(trifluoromethyl)pyrimidin-5-yl]phenyl]-N-[5-[1-(trifluoromethyl)cyclopropyl]isoxazol-3-yl]acetamide] | 50 to 100 | 10 to 50 |
| Cc1c(Nc2ncc(-c3ccc(CC(=O)Nc4cc(C5(C(F)(F)F)CC5)on4)c(F)c3)cn2)ncn1C [P-075, 2-[4-[2-[(l,5-dimethylimidazol-4-yl)amino]pyrimidin-5-yl]-2-fluorophenyl]-N-[5-[1-(trifluoromethyl)cyclopropyl]isoxazol-3-yl]acetamide] | 10 to 50 | 10 to 50 |
| O=C(Cc1ccc(-c2cnc(Nc3cnccn3)nc2)cc1F)Nc1cc(C2(C(F)(F)F)CC2)on1 [P-086, 2-[2-fluoro-4-[2-(pyrazin-2-ylamino)pyrimidin-5-yl]phenyl]-N-[5-[1-(trifluoromethyl)cyclopropyl]isoxazol-3-yl]acetamide] | 10 to 50 | 10 to 50 |
| COc1cnccc1Nc1ncc(-c2ccc(CC(=O)Nc3cc(C4(C(F)(F)F)CC4)on3)c(F)c2)cn1 [P-105, 2-[2-fluoro-4-[2-[(3-methoxy-4-pyridyl)amino]pyrimidin-5-yl]phenyl]-N-[5-[1-(trifluoromethyl)cyclopropyl]isoxazol-3-yl]acetamide] | 10 to 50 | 50 to 100 |
| COc1nc(Nc2cn(C)nc2C)ncc1-c1ccc(CC(=O)Nc2cc(C3(C(F)(F)F)CC3)on2)c(F)c1 [P-117, 2-[4-[2-[(l,3-dimethylpyrazol-4-yl)amino]-4-methoxy-pyrimidin-5-yl]-2-fluorophenyl]-N-[5-[1-(trifluoromethyl)cyclopropyl]isoxazol-3-yl]acetamide] | 10 to 50 |  |
| Cc1nc(Nc2cn(C)cn2)ncc1-c1ccc(CC(=O)Nc2cc(C3(C(F)(F)F)CC3)on2)c(F)c1 [P-119, 2-[2-fluoro-4-[4-methyl-2-[(1-methylimidazol-4-yl)amino]pyrimidin-5-yl]phenyl]-N-[5-[1-(trifluoromethyl)cyclopropyl]isoxazol-3-yl]acetamide] | 10 to 50 | 50 to 100 |
| C=CC(=O)Nc1nn(C)cc1Nc1ncc(-c2ccc(CC(=O)Nc3cc(C4(C(F)(F)F)CC4)on3)c(F)c2)cn1 [P-125, N-[4-[[5-[3-fluoro-4-[2-oxo-2-[[5-[1-(trifluoromethyl)cyclopropyl]isoxazol-3-yl]amino]ethyl]phenyl]pyrimidin-2-yl]amino]-1-methyl-pyrazol-3-yl] prop-2-enamide] | 10 to 50 | 50 to 100 |
| COc1nn(C2CC2)cc1Nc1ncc(-c2ccc(CC(=O)Nc3cc(C4(C(F)(F)F)CC4)on3)c(F)c2)c(C)n1 [P-126, 2-[4-[2-[(1-cyclopropyl-3-methoxypyrazol-4-yl)amino]-4-methyl-pyrimidin-5-yl]-2-fluorophenyl]-N-[5-[1-(trifluoromethyl)cyclopropyl]isoxazol-3-yl]acetamide] | 10 to 50 | 10 to 50 |
| Cc1nc(Nc2cnn(C3CC3)c2C)ncc1-c1ccc(CC(=O)Nc2cc(C3(C(F)(F)F)CC3)on2)c(F)c1 [P-129, 2-[4-[2-[(1-cyclopropyl-5-methylpyrazol-4-yl)amino]-4-methyl-pyrimidin-5-yl]-2-fluorophenyl]-N-[5-[1-(trifluoromethyl)cyclopropyl]isoxazol-3-yl]acetamide] | 10 to 50 | 10 to 50 |
| Cc1nn(C2CC2)cc1Nc1ncc(-c2ccc(CC(=O)Nc3cc(C4(C(F)(F)F)CC4)on3)c(F)c2)c(C)n1 [P-130, 2-[4-[2-[(1-cyclopropyl-3-methylpyrazol-4-yl)amino]-4-methyl-pyrimidin-5-yl]-2-fluorophenyl]-N-[5-[1-(trifluoromethyl)cyclopropyl]isoxazol-3-yl]acetamide] | 10 to 50 | 10 to 50 |
| Cn1cncc1Nc1ncc(-c2ccc(CC(=O)Nc3cc(C4(C(F)(F)F)CC4)on3)c(F)c2)cn1 [P-132, 2-[2-fluoro-4-[2-[(3-methylimidazol-4-yl)amino]pyrimidin-5-yl]phenyl]-N-[5-[1-(trifluoromethyl)cyclopropyl]isoxazol-3-yl]acetamide] | 10 to 50 | 10 to 50 |
| COc1nn(C(F)F)cc1Nc1ncc(-c2ccc(CC(=O)Nc3cc(C4(C(F)(F)F)CC4)on3)c(F)c2)c(C)n1 [P-144, 2-[4-[2-[[1-(difluoromethyl)-3-methoxypyrazol-4-yl]amino]-4-methyl-pyrimidin-5-yl]-2-fluorophenyl]-N-[5-[1-(trifluoromethyl)cyclopropyl]isoxazol-3-yl]acetamide] | 10 to 50 | 50 to 100 |
| CCn1cncc1Nc1ncc(-c2ccc(CC(=O)Nc3cc(C4(C(F)(F)F)CC4)on3)c(F)c2)cn1 [P-147, 2-[4-[2-[(3-ethylimidazol-4-yl)amino]pyrimidin-5-yl]-2-fluoro-phenyl]-N-[5-[1-(trifluoromethyl)cyclopropyl]isoxazol-3-yl]acetamide] | 10 to 50 | 50 to 100 |
| Cc1nn(C)cc1Nc1ncc(-c2ccc(CC(=O)Nc3cc(C4(C(F)(F)F)CC4)on3)c(F)c2)c(N)n1 [P-149, 2-[4-[4-amino-2-[(1,3-dimethylpyrazol-4-yl)amino]pyrimidin-5-yl]-2-fluorophenyl]-N-[5-[1-(trifluoromethyl)cyclopropyl]isoxazol-3-yl]acetamide] | 10 to 50 | 10 to 50 |
